Assay results reported in patent US20220249637A1, “COMBINATION THERAPY OF A CELL-MEDIATED CYTOTOXIC THERAPY AND AN INHIBITOR OF A PROSURVIVAL BCL2 FAMILY PROTEIN” (Juno Therapeutics, Inc., priority 2019, published 2022).

Assays:
[1] = system: JeKo-1 target cells; assay: JeKo-1 target cell co-culture for 100 hours; assay type: cell-based
Experimental: Further, the cytolytic activity of anti-CD19 CAR T cells was not affected when co-cultured with JeKo-1 target cells for 100 hours in the presence of 1.0 μM venetoclax.

[2] = system: CD3+ CAR T cells; assay: Delayed addition of venetoclax to RL / CAR T co-culture, CAR T cell number; assay type: cell-based; settings: 6 days
Experimental: RL target cells were co-cultured with CD19-targeting CAR T cells, generated substantially as described in Example 1, for 6 days in the absence or presence of the exemplary BCL2 inhibitor venetoclax (0.01 μM, 0.1 μM, or 1.0 μM). Venetoclax was added concurrently with co-culture or 24, 48, or 72 hours after the start of co-culture. As a control, RL target cells were cultured in the presence of venetoclax, but without CAR T cells.
After 6 days of co-culture, the number of CD3+ CAR T cells and target cells was assessed.

Structure (SMILES): CC1(C)CCC(CN2CCN(c3ccc(C(=O)NS(=O)(=O)c4ccc(NCC5CCOCC5)c([N+](=O)[O-])c4)c(Oc4cnc5[nH]ccc5c4)c3)CC2)=C(c2ccc(Cl)cc2)C1 [venetoclax]
- cytolytic activity of anti-CD19 CAR T cells ([1]; 1.0 μM venetoclax, 100 hours): not affected
- number of JeKo-1 target cells ([1]; venetoclax alone): not reduced
- number of CD3+ CAR T cells ([2]; 0.01 μM, all time points): not observed to reduce CD3+ CAR T cell number
- number of CD3+ CAR T cells ([2]; 0.1 μM or 1.0 μM added concurrently or 24 hours later): reduced
- number of CD3+ CAR T cells ([2]; added 48 or 72 hours following co-culture, any concentration): a reduction in CD3+ CAR T cells was not observed
